Measured values from US20260184700A1, “PDK1 REGULATORY COMPOUND AND COMPOSITION CONTAINING THE SAME” (PROVIBIO CO., LTD., priority 2024, published 2026).

Legend:
[1] = tested on: phospho-PDK1 in SU-DHL-8 cells; assay: PDK1 phosphorylation (pPDK1) by flow cytometry in SU-DHL-8 cells; type: cell-based, human; conditions: SU-DHL-8, 24 hours, pPDK1-PE flow cytometry, vs control group
Procedure: SU-DHL-8 cells were cultured in RPMI-1640 medium (containing 10% FBS, 100 U/mL penicillin, and 100 μg/mL streptomycin), and the cell concentration was adjusted to 1×10^6 cells/mL and seeded into a 12-well plate. After stabilizing the cells, the compound of the present invention was added, and the cells were cultured for 24 hours.
After drug treatment, the cells were harvested, and the Fc receptor blocking process was performed. The cells were then fixed and permeabilized using the Intracellular Staining Kit (Cat. No. BD554715) from BD Biosciences. Subsequently, the intracellular pPDK1 was stained using the pPDK1-PE fluorescently labeled antibody (BD Biosciences).
Referring to the figure, the vertical axis represents the phosphorylation level of PDK1 (phospho-PDK1 expression level), and the horizontal axis denotes the concentration-dependent treatment conditions of each compound.

[2] = tested on: MRL/lpr mice; assay: Lupus animal model (MRL/lpr mice); type: in vivo, mouse
Description: The MRL/MpJ-Faslpr/J (Hereinafter Referred to as “MRL/lpr”) used in this experiment is one of the representative animal models for systemic lupus erythematosus (SLE), known to produce various autoantibodies, including antinuclear antibodies, due to the lpr (lymphoproliferation) gene.
In this invention, the period up to 9 weeks of age was considered the pre-disease stage, and the period after 23 weeks of age was considered the post-disease stage, and efficacy verification experiments using this model were conducted.
MRL/lpr mice were imported from The Jackson Laboratory and acclimatized for one week in an SPF (Specific Pathogen Free) facility maintained at a temperature of 21-24° C., humidity of 40-60%, and a 12-hour light-dark cycle (lights on at 7:00 AM, lights off at 7:00 PM). […]
The serum separated at the time of necropsy of the lupus animal model was analyzed using the ‘IgG (Total) Mouse Uncoated ELISA Kit (Invitrogen, Cat. #88-50400)’ to measure the concentration of total IgG.
Capture antibody (anti-mouse IgG) diluted 1/250 in coating buffer was added to each well of a 96-well plate (Nunc™ MaxiSorp™ ELISA Plates, Uncoated, BioLegend, Cat. #423501) at 100 μl per well, and the plate was incubated at 4° C. for 16 hours.
To investigate the effect of GO15F administration on changes in the ratio of immune cells in the spleen of a lupus animal model, the spleens of mice administered each compound were excised, cells were extracted, and the cells were suspended in MACS buffer (autoMACS Washing Solution, Miltenyi Biotec., Cat. #130-092-987).
For flow cytometry analysis, FACS tubes (5 mL round tubes, Falcon, Cat. #352052) were used. To prevent non-specific binding of antibodies, 1 μg/mL of anti-mouse CD16/CD32 (InVivoPlus anti-mouse CD16/CD32, BioXCell, Cat. #BP0307) for 30 minutes to prevent non-specific binding of the antibody, then centrifuge at 1,500 rpm for 5 minutes and resuspend in 100 μL of MACS buffer.
For B cells, each FACS tube was stained with 1 μg/mL of FITC-conjugated anti-B220 antibody (eBioscience™, Cat. #11-0452-81) at 4° C. for 30 minutes, then washed with 2 mL of MACS buffer.
For T cells, each FACS tube was stained with 1 μg/mL PerCP-Cy5.5-conjugated anti-CD3 (Biolegend, Cat. #100218) at 4° C. for 30 minutes.
For macrophages, each FACS tube was stained with 1 μg/mL of PE-conjugated anti-CD11b antibody (Biolegend, Cat. #101207) and PerCP-Cy5.5-conjugated anti-F4/80 (Biolegend, Cat. #123128) and incubated at 4° C. for 30 minutes. The tubes were then washed with 2 mL of MACS buffer.
To investigate the effects of compound GO15F according to the present invention on systemic immune responses in a lupus animal model, gene expression analysis of cytokines in kidney tissue was performed as described in (1).
Each kidney tissue was used to isolate total RNA using TRIzol™ (Invitrozen, Cat. #15596018). RNA from each mouse was quantified at 1 μg using a micro-quantitative spectrophotometer (ThermoFisher Scientific, ND2000) and cDNA was synthesized.
The synthesized cDNA from each mouse was quantified to a concentration of 50 ng using a micro-quantitative spectrophotometer, and qPCR was performed for the cytokines ‘IL-2, IL-6, IL-10, IL-17, TNF-α, IFN-γ’ using a SYBR green probe (CFX96, BIO-RAD).
To investigate the effects of drug administration on renal tissue in MRL/lpr mice, the tissue was fixed in 10% neutral buffered formalin at room temperature, followed by stepwise ethanol penetration for dehydration. The tissue was then embedded in xylene and paraffin.
The blocked tissues were sectioned into 4 μm thick slices using a microtome, followed by deparaffinization, hydration, and staining.
Hematoxylin & Eosin staining, PAS staining, and Masson trichrome staining were performed for pathological evaluation of the tissues. […]

[3] = tested on: NHDF (Normal Human Dermal Fibroblast) cells; assay: Doxorubicin-induced aging NHDF cell model, SA-β-gal and Ki-67; type: cell-based; conditions: Doxorubicin (100 ng/ml) and IGF-1 (100 ng/ml), GO15F 0.01, 1 μM, 7 days
Procedure: After pre-incubation, the medium was removed, and the cells were cultured for 7 days in medium containing Doxorubicin (100 ng/ml) and IGF-1 (100 ng/ml) with GO15F. During this process, the medium was replaced with fresh medium every 2 days. The cultured cells were washed with PBS, fixed with 1× fixation buffer for 15 minutes, washed again with PBS, and then 300 μL of 1× working SA-β-gal buffer was added to each well. The cells were incubated at 37° C. for 24 hours. After the reaction was terminated, the cells were washed with PBS, and the fluorescence intensity of β-gal-positive cells stained blue was observed and photographed using a light microscope. Additionally, to investigate the effect of the compound (GO15F) of the present invention on proliferation activity in aging-induced NHDF (Normal Human Dermal Fibroblast) cells, Ki-67 expression was measured via FACS analysis. First, NHDF cells were seeded at 1×10^4 cells per well in a 12-well plate and stabilized for 24 hours. Subsequently, the cells were pre-incubated with GO15F at a concentration of 0.01 μM for 24 hours. After pre-incubation, the medium was removed, and GO15F (0.01 μM) was added to the medium containing Doxorubicin (100 ng/ml) and IGF-1 (100 ng/ml), followed by incubation for 7 days with fresh medium replaced every 2 days. […]

[4] = tested on: bleomycin-treated Balb/c mice; assay: Bleomycin-induced pulmonary fibrosis animal model; type: in vivo, mouse; conditions: bleomycin mice lung, vs BLM-treated group
Description: To evaluate the therapeutic efficacy of the compound according to the present invention against pulmonary fibrosis, an animal model of pulmonary fibrosis induced by bleomycin intratracheal administration was established.
For this purpose, 8-week-old male Balb/c mice were subjected to general anesthesia using an inhalation anesthetic (2-3% isoflurane in oxygen), followed by disinfection of the neck region, skin incision, and exposure of the trachea.
Bleomycin (Sigma-Aldrich, USA) was directly administered into the trachea at a concentration of 5 mg/kg in a solution of 100 μL.
Two days prior to Bleomycin administration, the compound of the present invention or the comparative drug was administered intraperitoneally at the specified concentration and dose, and the administration was continued once daily for a total of 14 days.
The experimental groups included Normal, Bleomycin alone (BLM), and BLM plus the compound of the present invention (BLM+GO88, 0.2 mg/kg).
Ten days later, the mice were euthanized humanely using carbon dioxide gas, the trachea was incised, and PBS was injected into the trachea to remove blood from the lungs.
The lung tissue washed with PBS was excised, fixed in 4% paraformaldehyde solution for 24 hours, and then paraffin blocks and tissue sections were prepared. The prepared sections were subjected to pathological analysis using H & E, Masson's trichrome, and Sirius red staining.
Additionally, immunohistochemical (IHC) staining was performed for α-SMA (α-smooth muscle actin), an indicator of lung fibroblast activation.

[5] = MRL/lpr mice, serum at necropsy, ELISA, vs control group

## Nc1ncccc1C(=O)NCCCCCCCCCCCCF [Compound 57, 2-Amino-N-(12-fluoro-dodecyl)-nicotinamide]
[1]
  PDK1 phosphorylation (phospho-PDK1 expression level): inhibitory effect on PDK1 phosphorylation
[2]; 41-week-old female MRL/lpr mice, GO15F (30 mg/kg), GO48 (1 mg/kg), GO88 (0.5 mg/kg) intraperitoneally once daily
  hair growth on the facial region: hair growth was confirmed
[2]; MRL/lpr mice, H&E, PAS, Masson trichrome staining
  renal pathological tissue (glomerular capillary loops): glomerular capillary loops were well maintained
[2]; MRL/lpr mice, flow cytometry (B220, CD3, CD11b/F4/80)
  B cells, T cells, and macrophages in the spleen: reduced the increased B cells, T cells, and macrophages
[2]; MRL/lpr mice, immunofluorescence staining
  IgG deposition in kidney tissue: significantly lower
[2]; [5]
  concentration of anti-dsDNA IgG in the blood: significantly lower
  total IgG concentration in the blood: significantly lower
[2]; MRL/lpr mice, weekly urine, Bradford, vs control group
  protein concentration in urine: significantly lower than that in the control group
[3]
  number of β-gal-positive cells: decreased
[4]
  collagen deposition (Masson's trichrome and Sirius red staining): significantly reduced
  expression of α-SMA (IHC): significantly suppressed
